Patent US8835433B2, “Optically pure diastereomers of 10-Propargyl-10-deazaaminopterin and methods of using same for the treatment of cancer” (Allos Therapeutics, Inc., priority 2010, dated 2014)

Columns and labels:
[1] = test system: SKBR-3 (breast cancer) human tumor cell line; assay: MTS growth inhibition assay, SKBR-3; format: cell-based; conditions: SK-BR-3, SK-BR3 (breast), 3 h treatment, 72 h recovery
Method: (§1) The agents PDX, PDX-10a, PDX-10b, were evaluated for growth inhibitory activity against, MDA-MB-435, SKBR-3 and NCI-H460 human tumor cell lines. Growth inhibition was measured by MTS assay following three hours of continuous treatment and a seventy-two hour recovery incubation. The purpose of these studies was to determine the cytotoxic activity of the compounds in the tumor cell lines studies studied.
Materials and Methods. Preparation of PDX-10a and PDX-10b was performed as discussed in Examples 1-2. The PDX compounds were diluted in dimethylsulfoxide (DMSO) at a concentration of 20 mM. From this solution a stock solution of 2 mM was made by dilution with phosphate-buffered saline (PBS). This 2 mM stock solution in 10% DMSO/90% PBS was used to make 2× concentrations of the titration series in cell growth medium which was added to the cell cultures in a 1:1 ratio to make 1× concentrations. Cell lines—The human tumor cell lines: MDA-MB-435 (melanoma), SKBR-3 (breast cancer) and NCI-H460 (lung cancer) were cultured in RPMI medium (RPMI; Nova Tech, Grand Island, N.Y.) containing ten percent dialyzed fetal bovine serum (FBS; Nova Tech). […]
Single Agent Pulse Studies—Treatment with test agents or standard agents (controls) was initiated 24 hours after plating cells (Day 1). […] Following incubation, the viable cell number was quantified by the MTS assay described below. […]
MTS Assay—Cell viability was determined using the MTS assay. […] Formazan production was quantified by spectrophotometric measurement at 490 nm and is proportional to viable cell number. […] Absorbance (OD) values were measured using a Dynex HD microplate reader at a single wavelength of 490 nm.
(§2) Data Analysis—Data from each experiment was collected and expressed as OD490 versus the log10 of the test agent concentration. […]

[2] = Pharmacokinetics in human (PDX-008, noncompartmental); format: in vivo; conditions: for Vd / clearance / half-life: human, plasma, intravenous; for half-life: read-out: t1/2 term
Method: (§3) Bioanalytical methods were developed and validated for quantitation of the 2 pralatrexate C10 diastereomers (PDX-10a and PDX-10b) in human, rat and dog plasma and urine. The basic bioanalytical method involves extraction of PDX-10a and PDX-10b from the matrix utilizing C18 solid-phase extraction (SPE) cartridges followed by derivatization (methylation with acetyl chloride) of the diastereomers for separation detection. The derivatized extracts are injected on a chiral high-performance liquid chromatography (HPLC) column for quantitation of each diastereomer by liquid chromatography-tandem mass spectrometry (LC/MS/MS). The lower limit of quantitation (LLOQ) for both diastereomers in plasma and urine matrices was 0.5 ng/mL.
In humans, PDX-10b clearance was approximately 50% lower for both renal clearance (CLren) and nonrenal clearance (CLnonren). The lower clearance and ˜2-fold lower volume of distribution at steady state (Vdss) of PDX-10b are likely responsible for the 2-fold higher plasma exposure of PDX-10b compared with PDX-10a that is observed in humans. However, the plasma concentration-time profiles for both diastereomers declined in parallel, and terminal elimination half-life (t1/2term) for both diastereomers was virtually identical. The biological cause for the observed stereoselectivity across species is unknown, but may be due to isomeric differences in plasma protein binding. Isomeric differences in tissue distribution and/or renal and hepatobiliary transport may contribute as well.

[3] = Pharmacokinetics in dog (PDX-T-07054-D); format: in vivo; conditions: for clearance / Vd / half-life: dog, plasma, 0.7 mg/kg; for half-life: read-out: t1/2 term
Method: as §3, with “ng/mL. […]” for “ng/mL.”

[4] = test system: MDA-MB-435 (melanoma) human tumor cell line; assay: MTS growth inhibition assay, MDA-MB-435; format: cell-based; conditions: 3 h treatment, 72 h recovery
Method: as §1
(§4) Materials and Methods. Preparation of PDX-10a and PDX-10b was performed as discussed in Examples 1-2. The PDX compounds were diluted in dimethylsulfoxide (DMSO) at a concentration of 20 mM. From this solution a stock solution of 2 mM was made by dilution with phosphate-buffered saline (PBS). This 2 mM stock solution in 10% DMSO/90% PBS was used to make 2× concentrations of the titration series in cell growth medium which was added to the cell cultures in a 1:1 ratio to make 1× concentrations. Cell lines—The human tumor cell lines: MDA-MB-435 (melanoma), SKBR-3 (breast cancer) and NCI-H460 (lung cancer) were cultured in RPMI medium (RPMI; Nova Tech, Grand Island, N.Y.) containing ten percent dialyzed fetal bovine serum (FBS; Nova Tech). Once cells reached seventy percent confluency, they were trypsinized and resuspended in an alternate media (RPMI containing five percent dialyzed FBS (Hyclone, Logan, Utah). One day prior to treatment (Day 0), cultures were suspended at a concentration of 1−7.5×10^4 cell/ml and 100 μl aliquots were plated into each well of a 96-well microtiter plate at a final concentration of 1×10^3-7.5×10^3 cells/well. Cells were incubated for 24 hours at 37° C. prior to exposure with agents.
(§5) Test Agents—racemic PDX, and individual diastereomers PDX-10a and PDX-10b were prepared as described above. Cells were treated 24 hours after plating (Day 1) with vehicle (media) alone or the above test agents for three hours at concentrations between 3 μM and 10 μM.
(§6) Single Agent Pulse Studies—Treatment with test agents or standard agents (controls) was initiated 24 hours after plating cells (Day 1). Cells were incubated at 37° C. with each of the test agents or a “chemococktail” (positive control) consisting of 215 μM Etoposide, 20 μM Taxol, 38.5 nM Velcade at final concentration for three hours. Following treatment, drug was removed, growth media added, and cells incubated at 37° C. for 72 hours. Following incubation, the viable cell number was quantified by the MTS assay described below. Experiments were repeated twice at the same concentrations. Results from these studies were used to calculate an IC50 value (concentration of drug that inhibits cell growth by 50% of the vehicle) for each compound. IC50 values were generated with Prizm software.
(§7) MTS Assay—Cell viability was determined using the MTS assay. This colorimetric procedure measures conversion of the MTS reagent (a tetrazolium salt) to formazan by living cells. Formazan production was quantified by spectrophotometric measurement at 490 nm and is proportional to viable cell number. For these studies, cells were cultured and treated as listed above. At the end of the treatment, 20 μl MTS tetrazolium (1.9 mg/ml in PBS, pH 6.0) was added to the cells for 1 hour at 37° C. Absorbance (OD) values were measured using a Dynex HD microplate reader at a single wavelength of 490 nm.
as §2

[5] = test system: NCI-H460 (lung cancer) human tumor cell line; assay: MTS growth inhibition assay, NCI-H460; format: cell-based
Method: as §1, §4, §5, §6, §7
Data Analysis—Data from each experiment was collected and expressed as OD490 versus the log10 of the test agent concentration. Using the statistical analysis package of the Prizm analytical software (GraphPad, San Diego, Calif.), a non-linear curve fit was performed which yielded the 50% inhibition concentration of the test article (IC50).

[6] = both sexes, 0.81 mg/kg, C1D1, calculated using average BW 85 kg, read-out: Vdss relative to BW
[7] = both sexes, 30 mg/m2, human, C1D1, 30 mg/m^2, range of the mean for males and females and for PDX-10a and PDX-10b, read-out: CLtot
[8] = both sexes, 30 mg/m2, human, C1D1, 30 mg/m^2, range of the mean for males and females and for PDX-10a and PDX-10b, read-out: Vdss
[9] = both sexes, 30 mg/m2, human, C1D1, 30 mg/m^2, range of the mean for males and females and for PDX-10a and PDX-10b
[10] = both sexes, 30 mg/m2, human, C1D6 or C2D6, 30 mg/m^2, range of the mean for males and females and for PDX-10a and PDX-10b, read-out: CLtot
[11] = both sexes, 30 mg/m2, human, C1D6 or C2D6, 30 mg/m^2, range of the mean for males and females and for PDX-10a and PDX-10b, read-out: Vdss
[12] = both sexes, 30 mg/m2, human, C1D6 or C2D6, 30 mg/m^2, range of the mean for males and females and for PDX-10a and PDX-10b
[13] = 0.81 mg/kg, C1D1, calculated using average BW 85 kg, read-out: CLtot relative to BW
[14] = both sexes, Day 1, 0.7 mg/kg, range of the mean for males and females and for PDX-10a and PDX-10b, read-out: CLtot
[15] = both sexes, Day 1, 0.7 mg/kg, range of the mean for males and females and for PDX-10a and PDX-10b, read-out: Vdss
[16] = both sexes, Day 1, 0.7 mg/kg, range of the mean for males and females and for PDX-10a and PDX-10b
[17] = both sexes, Day 1, calculated using average BW 8.5 kg, read-out: Vdss relative to BW
[18] = both sexes, Day 281, 0.7 mg/kg, range of the mean for males and females and for PDX-10a and PDX-10b, read-out: CLtot
[19] = both sexes, Day 281, 0.7 mg/kg, range of the mean for males and females and for PDX-10a and PDX-10b, read-out: Vdss
[20] = both sexes, Day 281, 0.7 mg/kg, range of the mean for males and females and for PDX-10a and PDX-10b
[21] = Day 1, calculated using average BW 8.5 kg, read-out: CLtot relative to BW
[22] = Homo sapiens, MDA-MB-435, MDA-MB-435 (melanoma)
[23] = Homo sapiens, NCI-H460, NCI-H460 (lung), 3 h treatment, 72 h recovery, MTS
[24] = Homo sapiens, NCI-H460, NCI-H460 repeat assay

| Compound | IC50 [1] [nM] | Vd [2, 6] [L/kg] | clearance [2, 7] [mL/min] | Vd [2, 8] [L] | half-life [2, 9] [h] | clearance [2, 10] [mL/min] | Vd [2, 11] [L] | half-life [2, 12] [h] | clearance [2, 13] [mL/min/kg] | clearance [3, 14] [mL/min] | Vd [3, 15] [L] | half-life [3, 16] [h] | Vd [3, 17] [L/kg] | clearance [3, 18] [mL/min] | Vd [3, 19] [L] | half-life [3, 20] [h] | clearance [3, 21] [mL/min/kg] | IC50 [4, 22] [nM] | IC50 [5, 23] [nM] | IC50 [5, 24] [nM] | also measured |
| --- | --- | --- | --- | --- | --- | --- | --- | --- | --- | --- | --- | --- | --- | --- | --- | --- | --- | --- | --- | --- | --- |
| C#CC[C@H](Cc1cnc2nc(N)nc(N)c2n1)c1ccc(C(=O)N[C@@H](CCC(=O)O)C(=O)O)cc1 (single isomer, unassigned) [PDX-10b] | 26.1 | 0.4 to 1.2 | 191 to 417 | 37 to 105 | 12 to 18 | 227 to 495 | 48 to 162 | 11 to 16 | 2 to 5 | 34 to 81 | 8 to 16 | 4.4 to 4.9 | 0.9 to 1.9 | 58 to 95 | 15 to 24 | 4.7 to 5.5 | 4 to 10 | 121 | 45.8 | 46.2 | higher plasma exposure compared with PDX-10a ([2]; humans): 2 fold; lower volume of distribution at steady state (Vdss) compared with PDX-10a ([2]; humans): ~2 fold; nonrenal clearance (CLnonren) lower compared with PDX-10a ([2]; humans): approximately 50%; renal clearance (CLren) lower compared with PDX-10a ([2]; humans): approximately 50%; higher clearance of PDX-10b compared with PDX-10a ([3]; dogs): 2 fold; IC50 ([4]; MDA-MB-435 (melanoma)): 121 nM |
| C#CC[C@@H](Cc1cnc2nc(N)nc(N)c2n1)c1ccc(C(=O)N[C@@H](CCC(=O)O)C(=O)O)cc1 (single isomer, unassigned) [PDX-10a] | 11.9 | 0.4 to 1.2 | 191 to 417 | 37 to 105 | 12 to 18 | 227 to 495 | 48 to 162 | 11 to 16 | 2 to 5 | 34 to 81 | 8 to 16 | 4.4 to 4.9 | 0.9 to 1.9 | 58 to 95 | 15 to 24 | 4.7 to 5.5 | 4 to 10 | 100 | 289 | 169 | IC50 ([5]; NCI-H460 repeat assay): 169 nM |
